Results published in patent US20240189278A1, “NOVEL COMPOUNDS AND METHODS FOR INCREASING KLOTHO GENE EXPRESSION” (Klotho Therapeutics, Inc., priority 2017, published 2024).

Columns and labels:
[1] = tested on: Klotho gene expression; test: Luciferase reporter assay to evaluate Klotho gene expression changes; format: cell-based; conditions: overnight incubation, luciferase luminescence
Experimental: Table 2. Luciferase Reporter Assay to Evaluate Klotho Gene Expression Changes
HEK293 cells/pKlotho_Luc in suspension (20 μl/well, density 0.25×10^6 cells/ml) were dispensed into assay-ready 384-well tissue culture treated plates (plates (BD BioCoat Poly-D-Lys coated, Cat.354661) preloaded with 1000× stock of test compounds in DMSO (20 nL/well, 10 concentration points, 3× dilutions from 20 uM to 0.001 uM). Growth medium: DMEM, 1% FBS, Pen/Strep, 600 ug/ml G418. Negative control: DMSO. Positive control: 2 uM Compound H from King, et. al. Biochem. J. (2012) 441, 453-461. Cells were incubated in CO2 incubator overnight. At the end of the incubation time, 20 ul/well of the luciferase assay solution (Steady-Luc Firefly HTS Assay Biotium, Cat 30028) were added to the plate and mixed on a VibraTranslator (Union Scientific). Plates were incubated for 5 min at 25° C. Steady glow luminescence signal was read using a BMG Labtech PHERAstar FSX reader.

[2] = tested on: aged male Wistar rats; test: Aged rat efficacy model, blood pressure by tail-cuff method; format: in vivo
Experimental: The aim of the study was to assess the efficacy of test compound in improving physiologic parameters in aged rats such as blood pressure values. The experiment included daily repeated administrations of the test compound for 14 consecutive days and follow up observations within a […] post-dosing period. Body weight (BWt) were monitored daily during the dosing period and twice a week during the post-dosing period. Blood pressure (BP) was measured on 0, 7th, 14th, 21s t and 28th day of the study. Study design, animal selection, handling and treatment were all in accordance with the CROs efficacy study protocols and Standard Operation Procedure, and the Animal Care Guidelines.
Fifteen aged male Wistar rats (22.5 months old; initial body weights ranged from 474.8 g to 672.4 g with an average body weight across the groups of 540.8 g) were randomized into two groups by body weight and systolic blood pressure: 11 animals distributed to compound 49-treated group and 4 animals—to vehicle-treated group. […]
Blood pressure was measured by the Tail-Cuff Method using the Coda Non-invasive Blood-Pressure System. Individual body weights and relative changes in body weight (compared to the appropriate weight on Day 0) were recorded.

[3] = Homo sapiens, HEK293, HEK293 cells/pKlotho_Luc

In the case of `C1=CCC(CNc2ncnc3c2ncn3C2CC2)CC1` (stereo not drawn) [Compound 1, N-[(cyclohex-3-en-1-yl)methyl]-9-cyclopropyl-9H-purin-6-amine], the “Activation, %” value ([1]; HEK293 cells/pKlotho_Luc) is reported as 149% and the EC50 [1, 3] is reported as 60 nM.

With `C1=C(CCNc2ncnc3[nH]ccc23)CCCCC1` [Compound 2, N-[2-(cyclohept-1-en-1-yl)ethyl]-7H-pyrrolo[2,3-d]pyrimidin-4-amine] the “Activation, %” value ([1]; HEK293 cells/pKlotho_Luc) was 94% and the EC50 [1, 3] was 70 nM.

In the case of `C1=C(CCNc2cc(N3CCCC3)ncn2)CCCC1` [Compound 3], the “Activation, %” value ([1]; HEK293 cells/pKlotho_Luc) is reported as 138% and the EC50 [1, 3] is reported as 100 nM.

In the case of `Fc1ccccc1-n1ncc2c(NCCC3=CCCCC3)ncnc21` [Compound 4], the “Activation, %” value ([1]; HEK293 cells/pKlotho_Luc) is reported as 105% and the EC50 [1, 3] is reported as 120 nM.

With `Fc1ccccc1-n1ncc2c(NCCC3=CCCCCC3)ncnc21` [Compound 5] the “Activation, %” value ([1]; HEK293 cells/pKlotho_Luc) was 61% and the EC50 [1, 3] was 120 nM.

For `C1=C(CCNc2cc(N3CCCCC3)ncn2)CCCC1` [Compound 6], the “Activation, %” value ([1]; HEK293 cells/pKlotho_Luc) was 98% and the EC50 [1, 3] was 140 nM.

With `C1=C(CCNc2ncnc3[nH]ccc23)CCCC1` [Compound 7] the “Activation, %” value ([1]; HEK293 cells/pKlotho_Luc) was 150% and the EC50 [1, 3] was 160 nM.

With `Cc1csc2ncnc(NCCC3=CCCCC3)c12` [Compound 8] the “Activation, %” value ([1]; HEK293 cells/pKlotho_Luc) was 145% and the EC50 [1, 3] was 160 nM.

For `C1=C(CCNc2ncnc3sccc23)CCCCC1` [Compound 9], the “Activation, %” value ([1]; HEK293 cells/pKlotho_Luc) was 81% and the EC50 [1, 3] was 180 nM.

`Nc1c(NCCC2=CCCCCC2)ncnc1-n1cccn1` [Compound 10] was tested, and the “Activation, %” value ([1]; HEK293 cells/pKlotho_Luc) was 98% and the EC50 [1, 3] was 200 nM.

`Nc1c(NCCC2=CCCCC2)ncnc1-n1cccn1` [Compound 11] was tested, and the “Activation, %” value ([1]; HEK293 cells/pKlotho_Luc) was 125% and the EC50 [1, 3] was 210 nM.

`Cc1csc2ncnc(NCCC3=CCCCCC3)c12` [Compound 12] was tested, and the “Activation, %” value ([1]; HEK293 cells/pKlotho_Luc) was 98% and the EC50 [1, 3] was 210 nM.

`Fc1cccc2ncnc(NCCC3=CCCCC3)c12` [Compound 13] was tested, and the “Activation, %” value ([1]; HEK293 cells/pKlotho_Luc) was 86% and the EC50 [1, 3] was 250 nM.

For `N#CCCn1ncc2c(NCCC3=CCCCCC3)ncnc21` [Compound 14], the “Activation, %” value ([1]; HEK293 cells/pKlotho_Luc) was 122% and the EC50 [1, 3] was 260 nM.

With `C1=C(CCNc2ncnc3c2cnn3-c2ccccc2)CCCC1` [Compound 15] the “Activation, %” value ([1]; HEK293 cells/pKlotho_Luc) was 203% and the EC50 [1, 3] was 270 nM.

With `CCn1ncc2c(NCCC3=CCCCC3)ncnc21` [Compound 16] the “Activation, %” value ([1]; HEK293 cells/pKlotho_Luc) was 151% and the EC50 [1, 3] was 370 nM.

`CN(CCC1CCCCC1)c1ncnc2c1ncn2C1CC1` [Compound 17] was tested, and the “Activation, %” value ([1]; HEK293 cells/pKlotho_Luc) was 114% and the EC50 [1, 3] was 380 nM.

`Cc1cc2c(NCCC3=CCCCCC3)ncnc2s1` [Compound 18] was tested, and the “Activation, %” value ([1]; HEK293 cells/pKlotho_Luc) was 48% and the EC50 [1, 3] was 450 nM.

With `C1=CCC(CCNc2ncnc3c2ncn3C2CC2)CC1` (stereo not drawn) [Compound 19] the “Activation, %” value ([1]; HEK293 cells/pKlotho_Luc) was 152% and the EC50 [1, 3] was 500 nM.

In the case of `N#CCCn1ncc2c(NCCC3=CCCCC3)ncnc21` [Compound 20], the “Activation, %” value ([1]; HEK293 cells/pKlotho_Luc) is reported as 120% and the EC50 [1, 3] is reported as 600 nM.

With `Cc1cc2c(NCCC3=CCCCC3)ncnc2s1` [Compound 21] the “Activation, %” value ([1]; HEK293 cells/pKlotho_Luc) was 133% and the EC50 [1, 3] was 680 nM.

In the case of `C1=C(CCNc2ncnc3c2cnn3-c2ccccc2)CCCCC1` [Compound 22], the “Activation, %” value ([1]; HEK293 cells/pKlotho_Luc) is reported as 96% and the EC50 [1, 3] is reported as 770 nM.

In the case of `C1=C(CCNc2ncnc3sccc23)CCCC1` [Compound 23], the “Activation, %” value ([1]; HEK293 cells/pKlotho_Luc) is reported as 133% and the EC50 [1, 3] is reported as 850 nM.

In the case of `C1=C(CCNc2ncnc3ccsc23)CCCCC1` [Compound 24], the “Activation, %” value ([1]; HEK293 cells/pKlotho_Luc) is reported as 122% and the EC50 [1, 3] is reported as 880 nM.

In the case of `CCn1ncc2c(NCCC3CC=CCC3)ncnc21` (stereo not drawn) [Compound 26], the “Activation, %” value ([1]; HEK293 cells/pKlotho_Luc) is reported as 121% and the EC50 [1, 3] is reported as 920 nM.

`C1=C(CCNc2ncnc3scnc23)CCCCC1` [Compound 27] was tested, and the “Activation, %” value ([1]; HEK293 cells/pKlotho_Luc) was 101% and the EC50 [1, 3] was 920 nM.

`CCC1(CC)CCCN(c2ncnc3c2ncn3C2CC2)CC1` [Compound 28] was tested, and the “Activation, %” value ([1]; HEK293 cells/pKlotho_Luc) was 101% and the EC50 [1, 3] was 1000 nM.

In the case of `C1=C(CCNc2ncnc3scnc23)CCCC1` [Compound 29], the “Activation, %” value ([1]; HEK293 cells/pKlotho_Luc) is reported as 103% and the EC50 [1, 3] is reported as 1100 nM.

With `c1nc(NCCC2CCCC2)c2ncn(C3CC3)c2n1` [Compound 30] the “Activation, %” value ([1]; HEK293 cells/pKlotho_Luc) was 87% and the EC50 [1, 3] was 1200 nM.

In the case of `c1nc(NCCC2CCCCC2)c2ncn(C3CC3)c2n1` [Compound 31], the “Activation, %” value ([1]; HEK293 cells/pKlotho_Luc) is reported as 109% and the EC50 [1, 3] is reported as 1100 nM.

With `CC(C)CCNc1ncnc2c1ncn2C1CC1` [Compound 32] the “Activation, %” value ([1]; HEK293 cells/pKlotho_Luc) was 77% and the EC50 [1, 3] was 730 nM.

In the case of `c1nc(NCC2CCCCC2)c2ncn(C3CC3)c2n1` [Compound 33], the “Activation, %” value ([1]; HEK293 cells/pKlotho_Luc) is reported as 89% and the EC50 [1, 3] is reported as 380 nM.

With `Clc1cccc(CNc2ncnc3c2ncn3C2CC2)c1` [Compound 34] the “Activation, %” value ([1]; HEK293 cells/pKlotho_Luc) was 102% and the EC50 [1, 3] was 2000 nM.

`CC(C)CNc1ncnc2c1ncn2C1CC1` [Compound 35] was tested, and the “Activation, %” value ([1]; HEK293 cells/pKlotho_Luc) was 40% and the EC50 [1, 3] was 1500 nM.

In the case of `c1nc(NCC2CCC2)c2ncn(C3CC3)c2n1` [Compound 36], the “Activation, %” value ([1]; HEK293 cells/pKlotho_Luc) is reported as 68% and the EC50 [1, 3] is reported as 830 nM.

For `C1=C(CCNc2ncnc3c2ncn3C2CC2)CCCC1` [Compound 37], the “Activation, %” value ([1]; HEK293 cells/pKlotho_Luc) was 103% and the EC50 [1, 3] was 70 nM.

For `C1=C(CCNc2ncnc3c2ncn3C2CC2)CCCCC1` [Compound 38], the “Activation, %” value ([1]; HEK293 cells/pKlotho_Luc) was 105% and the EC50 [1, 3] was 340 nM.

In the case of `CC1(CNc2ncnc3c2ncn3C2CC2)CCCCC1` [Compound 39], the “Activation, %” value ([1]; HEK293 cells/pKlotho_Luc) is reported as 77% and the EC50 [1, 3] is reported as 3600 nM.

With `CC1(CNc2ncnc3c2ncn3C2CC2)CCCC1` [Compound 40] the “Activation, %” value ([1]; HEK293 cells/pKlotho_Luc) was 89% and the EC50 [1, 3] was 2900 nM.

With `c1ccc([C@@H]2C[C@H]2Nc2ncnc3c2ncn3C2CC2)cc1` [Compound 41] the EC50 [1, 3] was greater than 30000 nM.

With `C1=C(CCNc2ncnc3c2ncn3C2CC2)CCC1` [Compound 42] the “Activation, %” value ([1]; HEK293 cells/pKlotho_Luc) was 79% and the EC50 [1, 3] was 620 nM.

`Clc1ccc(CNc2ncnc3c2ncn3C2CC2)cc1Cl` [Compound 43] gave an EC50 [1, 3] greater than 30000 nM.

With `CC(C)(CNc1ncnc2c1ncn2C1CC1)C1=CCCCC1` [Compound 44] the “Activation, %” value ([1]; HEK293 cells/pKlotho_Luc) was 58% and the EC50 [1, 3] was 23800 nM.

In the case of `CC1(C)CCC(CNc2ncnc3c2ncn3C2CC2)CC1` [Compound 45], the “Activation, %” value ([1]; HEK293 cells/pKlotho_Luc) is reported as 59% and the EC50 [1, 3] is reported as 13100 nM.

`c1nc(NCC23CCC(CC2)CC3)c2ncn(C3CC3)c2n1` [Compound 46] was tested, and the “Activation, %” value ([1]; HEK293 cells/pKlotho_Luc) was 86% and the EC50 [1, 3] was 1700 nM.

In the case of `FC1(CNc2ncnc3c2ncn3C2CC2)CCCCC1` [Compound 47], the “Activation, %” value ([1]; HEK293 cells/pKlotho_Luc) is reported as 86% and the EC50 [1, 3] is reported as 900 nM.

In the case of `C1=CC[C@@H](CNc2ncnc3c2ncn3C2CC2)CC1` [Compound 48], the “Activation, %” value ([1]; HEK293 cells/pKlotho_Luc) is reported as 86% and the EC50 [1, 3] is reported as 160 nM.

For `C1=CC[C@@H](CNc2ncnc3c2ncn3C2CC2)CC1` [Compound 49], the “Activation, %” value ([1]; HEK293 cells/pKlotho_Luc) was 90%, the EC50 ([1]; HEK293 cells/pKlotho_Luc) was 100 nM and the “Systolic blood pressure within the treated group during the study” value ([2]; 50 mg/kg PO daily for 14 days, 28-day study) was “considerable decrease”. For the same molecule, the “Systolic blood pressure, treated group vs vehicle-treated group” value ([2]; 50 mg/kg PO daily, Day 14) was “Significant difference”.
